Assay results published in US10421765B2, “Tetrahydropyrido[4,3-d]pyrimidine inhibitors of ATR kinase” (Board of Regents, The University of Texas System, priority 2017, dated 2019).
Where two headings read alike, the source gives them in different places.

Legend:
[1] = system: ATR-driven phosphorylation of Chk1 kinase at Serine 345 in HT-29 colorectal adenocarcinoma cells; test: pCHK1 cellular assay (CHK1 p-Ser345 AlphaScreen SureFire); format: cell-based; details: 4-nitroquinoline N-oxide 12 uM, read-out: Cell IC50 (pCHK1 IC50 values)
Method: Inhibitors of ATR kinase are effective at inhibiting the ATR-driven phosphorylation of the downstream target Chk1 kinase at Serine 345, following the addition of 4-nitroquinoline N-oxide, a chemical used to induce DNA damage. Cellular IC50 for the inhibitors of ATR described herein were measured in HT-29 colorectal adenocarcinoma cells. HT-29 cells were routinely maintained in McCoy's 5A media (ATCC Catalog #30-2007) supplemented with 10% fetal bovine serum (Sigma Catalog #F2442) and 1× Penicillin-Streptomycin (Gibco Catalog #15140-122) using a humidified incubator (37° C., 5% CO2, and ambient O2).
In preparation for the CHK1 (p-Ser345) ALPHASCREEN® SUREFIRE® assay, cells were harvested and resuspended in McCoy's 5A media supplemented with 10% fetal bovine serum and 1× Penicillin-Streptomycin. Cells were seeded onto a 384-well black CELLSTAR® Tissue Culture Plate (VWR Catalog #89085-314) at a density of 13,000 cells/well in a volume of 40 uL. The microplate was incubated overnight (approximately 20 hours) at 37° C. with 5% CO2 and ambient O2. Stock solutions of the test compounds were prepared in 100% DMSO (Sigma, Catalog #D2650) and serially diluted 1:3 using 100% DMSO. Compounds were additionally diluted 1:33 in culture medium, and 10 ul/well were transferred to the tissue culture plate. Following the compound addition the microplate was incubated at 37° C. for 90 minutes. 10 uL of 4-nitroquinoline N-oxide (Sigma Aldrich Catalog #N8141-1G) diluted in media (final concentration 12 uM) were added to the tissue culture plate followed by a 120 minute incubation at 37° C. The cells were then washed with PBS and lysed using 10 uL/well SUREFIRE® Kit lysis buffer diluted to 1× in water (PerkinElmer Catalog #TGRCHK1S50K), with mixing on an orbital shaker at 500 rpm for 20 min at RT. Lysates were frozen at −20° C. overnight.
4 uL/well of lysate was then transferred from the tissue culture plate to a 384-well, white, low volume, PROXIPLATE™ (PerkinElmer Catalog #600828). 5 uL/well of the acceptor bead solution, prepared by diluting SUREFIRE® Kit activation buffer (PerkinElmer Catalog #TGRCHK1S50K) and ALPHASCREEN® Protein A acceptor beads (PerkinElmer Catalog #6760617R) in SUREFIRE® Kit reaction buffer (PerkinElmer Catalog #TGRCHK1S50K), were added to the lysates under subdued light and incubated at room temperature for 120 min. 2 uL/well of the donor bead solution, prepared by diluting ALPHASCREEN® Streptavidin donor beads (PerkinElmer Catalog #6760617R) in SUREFIRE® Kit dilution buffer (PerkinElmer Catalog #TGRCHK1S50K), were added under subdued light and incubated at room temperature for an addition 120 minutes. The pCHK1 ALPHASCREEN® signal was measured using an ENVISION® plate reader (PerkinElmer). IC50 values were calculated using a four-parameter logistic curve fit using Genedata Screener software. Percent of control for each compound concentration was calculated by the following formula: 100*(Compound−Min)/(Max−Min) where “Max” is the high control, DMSO, and “Min” is the low control, 5 uM ATR inhibitor.

[2] = target: ATR/ATRIP complex (Homo sapiens (Human), UniProt Q13535); test: ATR/ATRIP enzymatic assay (Caliper-based); format: biochemical; details: FAM-labeled RAD17 peptide, ATP
ATR/ATRIP complex, sequence (Q13535 whole entry): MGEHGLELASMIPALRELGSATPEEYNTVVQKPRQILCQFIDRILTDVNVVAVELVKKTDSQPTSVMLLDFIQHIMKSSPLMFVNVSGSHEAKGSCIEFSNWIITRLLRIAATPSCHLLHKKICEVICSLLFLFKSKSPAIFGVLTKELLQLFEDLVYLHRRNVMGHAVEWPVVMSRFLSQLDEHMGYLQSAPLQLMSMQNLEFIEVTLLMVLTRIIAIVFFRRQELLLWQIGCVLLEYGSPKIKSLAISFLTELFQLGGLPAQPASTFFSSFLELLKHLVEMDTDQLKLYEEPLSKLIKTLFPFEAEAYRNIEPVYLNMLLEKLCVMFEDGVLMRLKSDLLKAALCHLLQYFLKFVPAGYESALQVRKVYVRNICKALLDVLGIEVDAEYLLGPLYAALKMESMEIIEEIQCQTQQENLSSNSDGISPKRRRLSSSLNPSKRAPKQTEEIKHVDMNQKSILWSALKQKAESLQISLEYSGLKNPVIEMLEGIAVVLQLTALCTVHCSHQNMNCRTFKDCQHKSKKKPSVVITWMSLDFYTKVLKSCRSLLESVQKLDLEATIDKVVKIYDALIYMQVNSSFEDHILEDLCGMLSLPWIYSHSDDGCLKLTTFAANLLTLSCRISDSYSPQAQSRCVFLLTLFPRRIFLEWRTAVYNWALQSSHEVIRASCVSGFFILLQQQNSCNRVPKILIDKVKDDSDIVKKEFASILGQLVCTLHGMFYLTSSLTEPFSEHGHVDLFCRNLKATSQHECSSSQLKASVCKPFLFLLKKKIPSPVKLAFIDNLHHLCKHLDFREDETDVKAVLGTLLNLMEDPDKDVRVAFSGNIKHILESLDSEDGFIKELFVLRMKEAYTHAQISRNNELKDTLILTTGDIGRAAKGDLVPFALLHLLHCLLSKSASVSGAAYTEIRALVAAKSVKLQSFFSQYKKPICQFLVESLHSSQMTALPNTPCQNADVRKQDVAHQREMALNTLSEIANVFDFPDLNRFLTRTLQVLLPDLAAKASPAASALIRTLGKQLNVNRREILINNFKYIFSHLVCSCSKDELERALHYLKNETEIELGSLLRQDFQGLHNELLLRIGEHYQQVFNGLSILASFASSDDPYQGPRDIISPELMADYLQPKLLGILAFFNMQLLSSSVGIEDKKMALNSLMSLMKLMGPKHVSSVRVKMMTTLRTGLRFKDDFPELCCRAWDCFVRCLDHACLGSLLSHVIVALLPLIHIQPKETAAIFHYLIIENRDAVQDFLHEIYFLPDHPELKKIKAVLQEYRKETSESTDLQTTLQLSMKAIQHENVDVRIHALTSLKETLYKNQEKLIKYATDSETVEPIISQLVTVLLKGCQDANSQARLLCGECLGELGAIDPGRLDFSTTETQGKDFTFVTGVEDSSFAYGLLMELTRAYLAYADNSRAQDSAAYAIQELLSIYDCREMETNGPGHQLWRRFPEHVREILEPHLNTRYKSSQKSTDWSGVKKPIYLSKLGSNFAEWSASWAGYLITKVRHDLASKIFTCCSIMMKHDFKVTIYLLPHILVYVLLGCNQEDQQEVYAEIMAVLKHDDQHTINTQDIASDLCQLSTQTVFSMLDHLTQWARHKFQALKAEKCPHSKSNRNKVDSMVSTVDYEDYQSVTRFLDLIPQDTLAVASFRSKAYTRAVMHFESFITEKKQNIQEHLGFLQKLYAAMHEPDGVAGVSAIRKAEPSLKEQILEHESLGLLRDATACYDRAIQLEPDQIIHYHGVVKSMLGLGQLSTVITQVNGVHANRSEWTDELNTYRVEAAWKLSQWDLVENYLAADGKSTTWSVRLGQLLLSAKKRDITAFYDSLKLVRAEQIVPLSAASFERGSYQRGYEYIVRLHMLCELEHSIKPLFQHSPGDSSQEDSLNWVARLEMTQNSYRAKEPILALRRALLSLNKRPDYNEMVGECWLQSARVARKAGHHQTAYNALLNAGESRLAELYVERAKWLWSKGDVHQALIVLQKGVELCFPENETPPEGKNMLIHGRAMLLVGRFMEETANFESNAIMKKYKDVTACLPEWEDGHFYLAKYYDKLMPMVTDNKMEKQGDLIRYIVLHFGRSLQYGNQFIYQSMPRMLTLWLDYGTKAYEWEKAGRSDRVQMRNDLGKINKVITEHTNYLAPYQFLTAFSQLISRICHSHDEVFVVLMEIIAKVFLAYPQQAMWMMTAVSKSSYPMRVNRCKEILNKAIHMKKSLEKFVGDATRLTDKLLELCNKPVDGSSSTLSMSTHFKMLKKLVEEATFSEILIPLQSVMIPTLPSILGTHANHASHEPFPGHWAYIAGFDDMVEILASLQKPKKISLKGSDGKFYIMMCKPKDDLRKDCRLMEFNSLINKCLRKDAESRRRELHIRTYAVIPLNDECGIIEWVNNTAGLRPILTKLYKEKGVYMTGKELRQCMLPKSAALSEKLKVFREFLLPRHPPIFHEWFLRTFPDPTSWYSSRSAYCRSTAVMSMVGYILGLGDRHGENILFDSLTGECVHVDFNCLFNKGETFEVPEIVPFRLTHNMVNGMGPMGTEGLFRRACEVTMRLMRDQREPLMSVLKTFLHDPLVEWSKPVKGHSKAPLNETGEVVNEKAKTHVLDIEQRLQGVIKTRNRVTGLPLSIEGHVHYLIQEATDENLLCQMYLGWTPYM
ATR/ATRIP complex, sequence (Q8WXE1 whole entry partner): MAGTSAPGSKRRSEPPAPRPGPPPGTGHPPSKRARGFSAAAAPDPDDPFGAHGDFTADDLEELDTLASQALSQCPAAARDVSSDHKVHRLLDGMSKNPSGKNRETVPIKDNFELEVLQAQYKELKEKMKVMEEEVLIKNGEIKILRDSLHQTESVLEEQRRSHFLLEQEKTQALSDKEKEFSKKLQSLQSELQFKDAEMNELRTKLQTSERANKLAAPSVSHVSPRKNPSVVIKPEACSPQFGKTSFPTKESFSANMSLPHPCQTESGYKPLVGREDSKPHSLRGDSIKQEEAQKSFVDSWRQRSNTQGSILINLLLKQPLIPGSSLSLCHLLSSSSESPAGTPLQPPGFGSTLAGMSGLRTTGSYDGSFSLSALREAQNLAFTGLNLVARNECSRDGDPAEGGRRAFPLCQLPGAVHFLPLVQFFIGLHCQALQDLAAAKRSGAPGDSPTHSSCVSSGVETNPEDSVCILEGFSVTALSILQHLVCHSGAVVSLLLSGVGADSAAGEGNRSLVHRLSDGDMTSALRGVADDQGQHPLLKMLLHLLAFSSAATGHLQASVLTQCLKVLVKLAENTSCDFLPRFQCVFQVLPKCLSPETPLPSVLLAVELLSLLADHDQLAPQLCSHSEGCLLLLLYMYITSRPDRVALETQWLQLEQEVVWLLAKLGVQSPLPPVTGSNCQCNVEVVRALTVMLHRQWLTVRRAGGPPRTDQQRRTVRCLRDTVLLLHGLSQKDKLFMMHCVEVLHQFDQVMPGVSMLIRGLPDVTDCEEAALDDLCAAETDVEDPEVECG
Method: Human full-length FLAG-TEV-ATR and His6-ATRIP were co-expressed in HEK293 cells. The cell pellet (20 g) was harvested and lysed in 100 mL of lysis buffer (20 mM Tris-HCl pH 7.5 at room temperature, 137 mM NaCl, 10% glycerol, 1 mM DTT, 1% (v/v) Tween-20, 0.1% (v/v) NP-40, complete protease inhibitor cocktail tablets, phosphatase inhibitor cocktail tablets, 2 mM MgCl2, 0.2 mM EDTA, and 1 mM ATP). After sonication and centrifugation, the supernatant was incubated at 4° C. for 3 hours with 1 mL of anti-FLAG resin (Sigma catalog #A2220) that had been pre-equilibrated in buffer A (20 mM Tris-HCl pH 7.5 at room temperature, 137 mM NaCl, 10% glycerol, 1 mM DTT, 2 mM MgCl2, and 0.2 mM EDTA). The sample was loaded into a column, and then washed with buffer A three times. Protein was subsequently eluted with 2 ml of buffer B (buffer A+200 μg/ml 3×FLAG peptide).
The ability of new chemical matter to inhibit the ATR catalytic activity in this ATR/ATRIP complex was assessed using a Caliper-based assay. A 2x enzyme solution (i.e., 4 nM enzyme) was prepared using 1× Kinase Reaction Buffer (25 mM HEPES pH 8, 0.0055% Brij-35, 10 mM MnCl2, and 1 mM DTT). A 2x peptide solution was then prepared consisting of 10 uM FAM-labeled RAD17 peptide (GL Biochem, catalog #524315) in 1× Kinase Reaction Buffer supplemented with 2 μM ATP. 10 μL of the 2× enzyme solution was transferred to an assay plate containing 60 nL of test compound (from a 3× serial dilution) in 100% DMSO. Following a 30 minute incubation at 28° C., 10 μL of the 2× peptide solution was then transferred to the same assay plate. The reaction was allowed to incubate at 28° C. for 6 hours. After adding […] of stop buffer (100 mM HEPES pH 7.5, 0.015% Brij-35, 0.2% Coating-3 Reagent (PerkinElmer, catalog #PN760050), and 50 mM EDTA), data were collected on a Caliper instrument. Conversion values were converted to inhibition values via the following equation: % inhibition=(max−conversion)/(max−min)*100, whereby “max” corresponds to the DMSO control and “min” corresponds to the low control. IC50 values were calculated using the following equation in XLFit: Y=Bottom+(Top−Bottom)/1+(IC50/X)^HillSlope).

[3] = Homo sapiens, HT-29, HT-29 cells
[4] = read-out: ATR/ATRIP Enzyme IC50

Structure (SMILES) | IC50 [1, 3] | IC50 [2, 4] | IC50 ([1]; HT-29 cells) | IC50 ([2]; estimated range, read-out: ATR/ATRIP Enzyme IC50 (estimated class))
C[C@@H]1Cc2ncnc(N3CCC(S(C)(=O)=O)C3)c2CN1c1cc(Cl)nc2[nH]ccc12 (stereo partly drawn) [Example 41, (7R)-6-(6-chloro-1H-pyrrolo[2,3-b]pyridin-4-yl)-7-methyl-4-(3-(methylsulfonyl)pyrrolidin-1-yl)-5,6,7,8-tetrahydropyrido[4,3-d]pyrimidine] | 36 nM | 472 nM | – | –
C[C@@H]1Cc2ncnc(N3C[C@H]4CC[C@@H](C3)[C@H]4NS(=O)(=O)C3CC3)c2CN1c1cc(Cl)nc2[nH]ccc12 [Example 78, N-((1R,5S,8R)-3-((R)-6-(6-chloro-1H-pyrrolo[2,3-b]pyridin-4-yl)-7-methyl-5,6,7,8-tetrahydropyrido-[4,3-d]pyrimidin-4-yl)-3-azabicyclo[3.2.1]-octan-8-yl)cyclopropane-sulfonamide] | 50 nM | 184 nM | – | –
C[C@@H]1Cc2ncnc([C@H]3CCCN(S(C)(=O)=O)C3)c2CN1c1ccnc2[nH]ccc12 [Example 50b, (R)-7-methyl-4-((S)-1-(methylsulfonyl)piperidin-3-yl)-6-(1H-pyrrolo[2,3-b]pyridin-4-yl)-5,6,7,8-tetrahydropyrido[4,3-d]pyrimidine] | 579 nM | 4790 nM | – | –
C[C@@H]1Cc2ncnc(C3CCN(S(C)(=O)=O)C3)c2CN1c1ccnc2[nH]ccc12 (stereo partly drawn) [Example 17, 1-methanesulfonyl-3-[(7R)-7-methyl-6-{1H-pyrrolo[2,3-b]pyridin-4-yl}-5H,6H,7H,8H-pyrido[4,3-d]pyrimdin-4-yl]pyrrolidine] | 362 nM | 936 nM | – | –
CC(C)Oc1cc(N2Cc3c(ncnc3C3CCN(S(C)(=O)=O)CC3)C[C@H]2C)c2cc[nH]c2n1 [Example 93, (R)-6-(6-isopropoxy-1H-pyrrolo[2,3-b]pyridin-4-yl)-7-methyl-4-(1-(methylsulfonyl)piperidin-4-yl)-5,6,7,8-tetrahydro-pyrido[4,3-d]pyrimidine] | 15 nM | 87 nM | – | –
CC1Cc2ncnc(-c3ccc(S(C)(=O)=O)cc3)c2CN1c1ccnc2[nH]ccc12 (stereo not drawn) [Example 3, 7-Methyl-4-(4-(methylsulfonyl)phenyl)-6-(1H-pyrrolo[2,3-b]pyridin-4-yl)-5,6,7,8-tetrahydropyrido[4,3-d]pyrimidine bis(trifluoroacetate)] | 183 nM | 1970 nM | – | –
C[C@@H]1Cc2ncnc(N3CC(S(C)(=O)=O)C3)c2CN1c1cc(Cl)nc2[nH]ccc12 [Example 32, 1-[(7R)-6-{6-chloro-1H-pyrrolo[2,3-b]pyridin-4-yl}-7-methyl-5H,6H,7H,8H-pyrido[4,3-d]pyrimidin-4-yl]-3-methanesulfonylazetidine] | 21 nM | 223 nM | – | –
C[C@@H]1Cc2ncnc([C@H]3CCN(S(C)(=O)=O)C3)c2CN1c1ccnc2[nH]ccc12 [Example 57b, (R)-7-methyl-4-((S)-1-(methylsulfonyl)pyrrolidin-3-yl)-6-(1H-pyrrolo[2,3b]-pyridin-4-yl)-5,6,7,8-tetrahydropyrido[4,3-d]pyrimidine] | – | 1470 nM | 394 nM | –
C[C@@H]1Cc2ncnc(C3=C[C@@H]4CC[C@H](C3)N4S(C)(=O)=O)c2CN1c1cc(Cl)nc2[nH]ccc12 [Example 60, (R)-6-(6-chloro-1H-pyrrolo[2,3-b]pyridin-4-yl)-7-methyl-4-((1S,5R)-8-(methylsulfonyl)-8-azabicyclo[3.2.1]oct-2-en-3-yl)-5,6,7,8-tetra-hydropyrido[4,3-d]-pyrimidine] | 22 nM | 66 nM | – | –
COC(=O)[C@@H]1CCCN(c2ncnc3c2CN(c2cc(Cl)nc4[nH]ccc24)[C@H](C)C3)C1 [Example 62, Methyl (R)-1-((R)-6-(6-chloro-1H-pyrrolo[2,3-b]pyridin-4-yl)-7-methyl-5,6,7,8-tetrahydropyrido-[4,3-d]pyrimidin-4-yl)-piperidine-3-carboxylate] | 138 nM | 253 nM | – | –

Continued by falling IC50 [1, 3], values first:

IC50 [1, 3] | IC50 [2, 4] | IC50 ([1]; HT-29 cells) | IC50 ([2]; estimated range, read-out: ATR/ATRIP Enzyme IC50 (estimated class)) | Structure (SMILES)
132 nM | 1090 nM | – | – | C[C@@H]1Cc2ncnc(C3CCN(S(=O)(=O)C4CC4)CC3)c2CN1c1ccnc2[nH]ccc12 [Example 80, (R)-4-(1-(cyclopropyl-sulfonyl)piperidin-4-yl)-7-methyl-6-(1H-pyrrolo[2,3-b]pyridin-4-yl)-5,6,7,8-tetrahydro-pyrido[4,3-d]pyrimidine]
127 nM | 979 nM | – | – | C[C@@H]1Cc2ncnc(N3CCC(S(C)(=O)=O)CC3)c2CN1c1ccnc2[nH]ccc12 [Example 8, (R)-7-Methyl-4-(4-(methylsulfonyl)piperidin-1-yl)-6-(1H-pyrrolo[2,3-b]pyridin-4-yl)-5,6,7,8-tetrahydropyrido[4,3-d]pyrimidine bis(trifluoroacetate)]
38 nM | – | – | 1000 to 10000 nM | CCC(=O)NC1[C@@H]2CC[C@H]1CN(c1ncnc3c1CN(c1cc(Cl)nc4[nH]ccc14)[C@H](C)C3)C2 (stereo partly drawn) [Example 27, N-[3-[(7R)-6-{6-chloro-1H-pyrrolo[2,3-b]pyridin-4-yl}-7-methyl-5H,6H,7H,8H-pyrido[4,3-d]pyrimidin-4-yl]-3-aza-bicyclo[3.2.1]octan-8-yl}propanamide]
21 nM | 282 nM | – | – | CCC1(O)CCN(c2ncnc3c2CN(c2cc(Cl)nc4[nH]ccc24)[C@H](C)C3)CC1 [Example 46, (R)-1-(6-(6-Chloro-1H-pyrrolo[2,3-b]pyridin-4-yl)-7-methyl-5,6,7,8-tetrahydropyrido[4,3-d]pyrimidin-4-yl)-4-ethylpiperidin-4-ol]
13 nM | 120 nM | – | – | C[C@@H]1Cc2ncnc(N3CCC(NS(C)(=O)=O)CC3)c2CN1c1cc(Cl)nc2[nH]ccc12 [Example 29, N-{1-[(7R)-6-{6-chloro-1H-pyrrolo[2,3-b]pyridin-4-yl}-7-methyl-5H,6H,7H,8H-pyrido [4,3-d]pyrimidin-4-yl]piperidin-4-yl}methanesulfonamide]
